Laboratory results reported in US11203608B2, “Platinum-containing compounds, and related compositions and uses thereof” (Massachusetts Institute of Technology, priority 2019, dated 2021).

Key:
[1] = test system: APC−/−; TdTomato+ (A-tdt) organoids; assay: Viability of A-tdt murine colorectal cancer organoids, resazurin assay; assay type: cell-based; settings: 72-h exposure (table title); read-out: IC50 against A-tdt organoids
Text: (§1) Colonic crypts were isolated and colon organoids were generated from the following mouse genotypes on a C57Bl/6 background: 1. Rosa-LSL-TdTomato (hereafter LSL-tdt), 2. P53^f1/f1; LSL-tdt, and 3. LSL-KRAS^G12D/WT; P53^fl/fl; LSL-tdt mice. Subsequently, the pSECC-APC plasmid (carrying Cre, Cas9, and sgAPC) was transfected into each of the above three genotypes of colon organoids. This transfection strategy generated, in a single step, the following colorectal cancer organoids, including 1. APC^−/−; TdTomato^+ (A-tdt), 2. APC^−/−; P53^−/−; TdTomato^+ (AP-tdt), and 3. APC^−/−; KRAS^G12D/WT; P53^−/−; TdTomato^+ (AKP-tdt). Organoids of the desired genotype were selected for by Wnt/Rspo withdrawal for APC^−/−, Nutlin-3 addition for P53^−/−, and EGF withdrawal for KRAS^G12D.
(§2) Twenty four hours after seeding the organoids, a media change was performed and dose responses of oxaliplatin, doxorubicin and doxaliplatin were added. […] Organoids were cultured in Advanced DMEM/F12 supplemented with 2 mM GlutaMAX, 1% Penicillin-Streptomycin, 2% B27, and Y-27632 (10 μM).

[2] = test system: APC−/−; P53−/−; TdTomato+ (AP-tdt) organoids; assay: Viability of AP-tdt murine colorectal cancer organoids, resazurin assay; assay type: cell-based; settings: 72-h exposure (table title); read-out: IC50 against AP-tdt organoids
Text: as §1, §2

[3] = test system: APC−/−; KRASG12D/WT; P53−/−; TdTomato+ (AKP-tdt) organoids; assay: Viability of AKP-tdt murine colorectal cancer organoids, resazurin assay; assay type: cell-based; settings: 72-h exposure (table title); read-out: IC50 against AKP-tdt organoids
Text: as §1, §2

[4] = test system: APC−/−; KRASG12D/WT; P53−/− (AKP) organoids; assay: Viability of AKP murine colorectal cancer organoids; assay type: cell-based
Text: (§3) To generate 4. APC^−/−; KRAS^G12D/WT; P53^−/−; (AKP) and 5. APC^−/−; KRAS^G12D/WT; P53^−/−; MSH2^−/− (AKP-MSH2) colon cancer organoids, colonic crypts were isolated and colon organoids were generated from the following mouse genotypes on a C57Bl/6 background: 4. LSL-KRAS^G12D/WT; P53^fl/fl mice and 5. LSL-KRAS^G12D; P53^fl/fl; MSH2^fl/fl mice. Subsequently, the pSECC-APC plasmid (carrying Cre, Cas9, and sgAPC) was transfected into each of the above two genotypes of colon organoids. Following pSECC-APC transfection, Wnt/Rspo withdrawal was performed and surviving (APC^−/−) single organoids were cloned and PCR genotyped for Cre mediated deletion of p53 and/or MSH2, and for Cre mediated activation of oncogenic KRAS^G12D.
as §2

[5] = test system: APC−/−; KRASG12D/WT; P53−/−; MSH2−/− (AKP-MSH2) organoids; assay: Viability of AKP-MSH2 murine colorectal cancer organoids; assay type: cell-based
Text: as §3, §2

[6] = test system: HT-29 human colorectal adenocarcinoma; assay: Cell growth, resazurin assay, HT-29; assay type: cell-based; settings: 96-h exposure (table title); read-out: IC50 HT-29 (colon)
Experimental: (§4) Cells were cultured in 10 mL of Advanced DMEM/F12 (ADMEM/F12), supplemented with 5% FBS, 2 mM GlutaMAX, and 1% Penicillin-Streptomycin in 10 cm tissue culture plates. Cells were then plated into 96-well plates with about 2.5×10^3 cells per well. Cells were plated with 200 μL per well of ADMEM/F12 supplemented with 5% FBS, 2 mM GlutaMAX, and 1% Penicillin-Streptomycin. Cells were treated with dose responses of doxorubicin, oxaliplatin, or doxaliplatin upon plating. The cells were then cultured for 72 hours following drug treatment, and cell growth was measured by resazurin assay.

[7] = test system: MDA-MB-231 human breast adenocarcinoma; assay: Cell growth, resazurin assay, MDA-MB-231; assay type: cell-based; settings: 96-h exposure (table title)
Experimental: as §4

[8] = test system: PC3 human prostate adenocarcinoma; assay: Cell growth, resazurin assay, PC3; assay type: cell-based; settings: 96-h exposure (table title)
Experimental: as §4

U2OS human osteosarcoma = assay: Cell growth, resazurin assay, U2OS; assay type: cell-based; settings: 96-h exposure (table title); read-out: IC50 U2OS (bone)
Experimental: as §4

[9] = test system: A549 human lung carcinoma; assay: Cell growth, resazurin assay, A549; assay type: cell-based; settings: 96-h exposure (table title)
Experimental: as §4

[10] = test system: HL60 human leukemia cell line; assay: Cell growth, resazurin assay, HL60; assay type: cell-based; settings: 96-h exposure (table title)
Experimental: as §4

[11] = test system: cisplatin-resistant A2780CIS human ovarian cancer cell line; assay: Cell growth, resazurin assay, A2780CIS; assay type: cell-based; settings: 72-h exposure
Experimental: as §4

[12] = test system: OVCAR8 human ovarian cancer cell line; assay: Cell growth, resazurin assay, OVCAR8; assay type: cell-based; settings: 72-h exposure
Experimental: as §4

[13] = test system: A-tdt, AP-tdt, and AKP-tdt murine colorectal cancer organoids; assay: Cellular toxicity across the A-tdt, AP-tdt and AKP-tdt organoid series; assay type: cell-based; settings: series of A-tdt
Text: as §1
Twenty four hours after seeding the organoids, a media change was performed and dose responses of oxaliplatin, doxorubicin and doxaliplatin were added. Forty eight hours after treatment, cell growth was evaluated by resazurin assay. Organoids were cultured in Advanced DMEM/F12 supplemented with 2 mM GlutaMAX, 1% Penicillin-Streptomycin, 2% B27, and Y-27632 (10 μM).

[14] = test system: OVCAR8-OXR oxaliplatin-resistant human ovarian cancer cell line; assay: Cell growth, resazurin assay, OVCAR8-OXR; settings: 72-h exposure; for Fold Resistance (IC50, OVCAR8OXR vs OVCAR8): based on IC50 values
Experimental: Cells were cultured in 10 mL of Advanced DMEM/F12 (ADMEM/F12), supplemented with 5% FBS, 2 mM GlutaMAX, and 1% Penicillin-Streptomycin in 10 cm tissue culture plates. Cells were then plated into 96-well plates with about 2.5×10^3 cells per well. Cells were plated with 200 μL per well of ADMEM/F12 supplemented with 5% FBS, 2 mM GlutaMAX, and 1% Penicillin-Streptomycin. […] The cells were then cultured for 72 hours following drug treatment, and cell growth was measured by resazurin assay.

- IC50 [1]: 460 nM
- IC50 [2]: 410 nM
- IC50 [3]: 430 nM
- IC50 ([4]; 72-h exposure, read-out: IC50 against AKP organoids): 110 nM
- Potency relative to oxaliplatin (by IC50) ([4]; AKP organoids): 13 fold
- IC50 ([5]; 72-h exposure, read-out: IC50 against AKP-MSH2 organoids): 78 nM
- Potency relative to oxaliplatin (by IC50) ([5]; AKP-MSH2 organoids): 28 fold
- IC50 [6]: 330 nM
- IC50 [7]: 110 nM
- IC50 [8]: 92 nM
- IC50 (U2OS human osteosarcoma): 52 nM
- IC50 [9]: 100 nM
- IC50 [10]: 160 nM
- IC50 [11]: 280 nM
- IC90 [11]: 380 nM
- IC50 [12]: 140 ± 10 nM
- Fold Resistance (IC50, OVCAR8OXR vs OVCAR8) [14]: 1.0 fold
- Fold Resistance (IC50, OVCAR8OXR vs OVCAR8) ([14]; listed as doxaliplatin): no change in the IC50 value
- IC50 ([14]; read-out: IC50 OVCAR8OXR): 140 ± 10 nM
SMILES: COc1cccc2c1C(=O)c1c(O)c3c(c(O)c1C2=O)CC(O)(C(=O)CO)CC3OC1CC(N)C(N)C(C)O1.O=C1[O][Pt][O]C1=O (stereo not drawn) [DoxPt, Doxaliplatin]
- IC95 [11]: 410 nM
- IC80 [12]: 370 ± 20 nM
- Cellular toxicity relative to oxaliplatin [13]: three to ten-fold higher cellular toxicity than oxaliplatin
- Fold Resistance (IC80, OVCAR8OXR vs OVCAR8) ([14]; based on IC80 values): 0.6 fold
- IC80 ([14]; read-out: IC80 OVCAR8OXR): 230 ± 10 nM
